6 compounds from patent US10829520B2, “Beta-hairpin peptidomimetics” (POLYPHOR AG, priority 2015, dated 2020) can be followed below.

Holding throughout (type): cell-based
The subject of series [1] is Pseudomonas aeruginosa ATCC 27853. The essentials:
(§1)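 MIC in μg/mL read as absence of visible growth after 18-20 h incubation at 35° C. Bacteria at about 10^6 CFU/mL in MH-II (cation-adjusted) broth plus 0.002% P-80 were exposed to two-fold peptide dilutions per standard CLSI microdilution.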

Series [2] deals with Klebsiella pneumoniae SSI #3010. The essentials:
as §1

Series [3] deals with Acinetobacter baumannii 872842.
Series [4] relates to Klebsiella pneumoniae 968733.
The subject of series [5] is Escherichia coli 926415.
Series [6] has as its system Escherichia coli ATCC 25922. The method, boiled down: as §1
The test system of series [7] is Acinetobacter baumannii DSM 30008. The essentials: as §1
In series [8] the test system is human red blood cells (hRBC). The experiment in a line: Hemolysis of human red blood cells. The essentials: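 Fresh human red blood cells are washed in PBS, then shaken with peptide (100 μg/mL) at 37° C. for 1 h, final erythrocyte density about 0.9×10^9 cells/mL. After centrifugation, diluted supernatants are read at 540 nm against buffer (0%) and Triton X-100 (100%) lysis controls.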

Where [9] appears, read: clinical isolate, Mueller-Hinton II broth, P-80 0.002% present.

Molecules are shown by their SMILES. Like-named read-outs stand apart in the source and are kept apart here. Where a SMILES comes first, the peptide text is derived from it. Bridges are numbered along the chain shown (N, C = ends). Roman numbers before positions name the chains, in order. [ ]: non-standard residue; d: D form. Tle = CC(C)(C)[C@H](N)C(=O)O; dDab = NCC[C@@H](N)C(=O)O; Orn = NCCC[C@H](N)C(=O)O; Dab = NCC[C@H](N)C(=O)O; dAze = O=C(O)[C@H]1CCN1

For `CC(C)C[C@@H]1NC(=O)[C@@H](CC(C)C)NC(=O)[C@H](CCN)NC(=O)[C@@H](NC(=O)[C@H](CCN)NC(=O)[C@@H](NC(=O)[C@H](CCN)NC(=O)CC[C@@H]2NC(=O)CNC(=O)[C@H](CCCN)NC(=O)[C@H](CCN)NC(=O)[C@H](Cc3ccc(O)cc3)NC(=O)[C@H](CO)NC(=O)[C@H](CC(C)C)NC(=O)[C@@H]3CCCN3C(=O)[C@H]3CCCN3C(=O)[C@H](CO)NC(=O)[C@H]([C@@H](C)O)NC(=O)[C@H](C(C)C)NC(=O)[C@H](CCN)NC(=O)[C@H](Cc3c[nH]c4ccccc34)NC2=O)[C@@H](C)O)CCNC(=O)[C@H]([C@@H](C)O)NC(=O)[C@H](CCN)NC(=O)[C@H](CCN)NC1=O` [Ex. 94] (I: cyclo(LSY[Dab][Orn]GEW[Dab]VTS[dP]P) / II: [Dab]T[Dab][Dab][Dab][dL]L[Dab][Dab]T; amide I:7-II:N; lactam II:4-II:C), the “Pseudomonas aeruginosa ATCC 27853 MIC” value in series [1] (ATCC 27853) worked out at 0.25 µg/mL. Also, in series [2] (SSI #3010), the “Klebsiella pneumoniae SSI #3010 MIC” value stood at 0.125 µg/mL. The “Acinetobacter baumannii 872842 MIC” value in series [3] (872842) came out at 0.25 µg/mL. For the same compound, the “Klebsiella pneumoniae 968733 MIC” value in series [4] (968733) worked out at 0.5 µg/mL. Moreover, the “Escherichia coli 926415 MIC” value in series [5] (926415) worked out at 1 µg/mL. In addition, the “Escherichia coli ATCC 25922 MIC” value in series [6] (ATCC 25922) stood at 0.0625 µg/mL. Further, in series [7] (DSM 30008), the “Acinetobacter baumannii DSM 30008 MIC” value turned out to be 0.0625 µg/mL. Besides, the “Hemolysis at 100 μg/mL” value in series [8] (red cells of human, 1 h, 100) is 1%.
Turning to `CC(C)C[C@@H]1NC(=O)[C@@H](CC(C)C)NC(=O)[C@H](CCN)NC(=O)[C@@H](NC(=O)[C@H](CCN)NC(=O)[C@@H](NC(=O)[C@H](CCN)NC(=O)CC[C@@H]2NC(=O)[C@H](CCN)NC(=O)[C@H](Cc3ccc(O)cc3)NC(=O)[C@H](CO)NC(=O)[C@H](CC(C)C)NC(=O)[C@@H]3CCCN3C(=O)[C@H]3CCCN3C(=O)[C@H](CO)NC(=O)[C@H](Cc3ccc(O)cc3)NC(=O)[C@H](C(C)C)NC(=O)[C@H](CCN)NC(=O)[C@H](Cc3c[nH]c4ccccc34)NC(=O)[C@H](CCN)NC(=O)[C@@H](CCN)NC2=O)[C@@H](C)O)CCNC(=O)[C@H]([C@@H](C)O)NC(=O)[C@H](CCN)NC(=O)[C@H](CCN)NC1=O` [Ex. 95] (I: cyclo(LSY[Dab]E[dDab][Dab]W[Dab]VYS[dP]P) / II: [Dab]T[Dab][Dab][Dab][dL]L[Dab][Dab]T; amide I:5-II:N; lactam II:4-II:C), in series [1] (ATCC 27853), the “Pseudomonas aeruginosa ATCC 27853 MIC” value is 0.5 µg/mL. In series [2] (SSI #3010), the “Klebsiella pneumoniae SSI #3010 MIC” value was 0.5 µg/mL. Moreover, in series [3] (872842), the “Acinetobacter baumannii 872842 MIC” value amounted to 1 µg/mL. For the same compound, the “Klebsiella pneumoniae 968733 MIC” value in series [4] (968733) is 1 µg/mL. In addition, the “Escherichia coli 926415 MIC” value in series [5] (926415) came out at 1 µg/mL. In series [6] (ATCC 25922), the “Escherichia coli ATCC 25922 MIC” value worked out at 0.25 µg/mL. Also, in series [7] (DSM 30008), the “Acinetobacter baumannii DSM 30008 MIC” value came to 0.5 µg/mL. Further, the “Hemolysis at 100 μg/mL” value in series [8] (red cells of human, 1 h, 100) was 1%.
Take `CC(C)C[C@@H]1NC(=O)[C@@H](CC(C)C)NC(=O)[C@H](CCN)NC(=O)[C@@H](NC(=O)[C@H](CCN)NC(=O)[C@@H](NC(=O)[C@H](CCN)NC(=O)CC[C@@H]2NC(=O)[C@H](CCN)NC(=O)[C@H](Cc3ccc(O)cc3)NC(=O)[C@H](CO)NC(=O)[C@H](CC(C)C)NC(=O)[C@@H]3CCCN3C(=O)[C@H]3CCCN3C(=O)[C@H](Cc3ccc(O)cc3)NC(=O)[C@H]([C@@H](C)O)NC(=O)[C@H](C(C)C)NC(=O)[C@H](CCN)NC(=O)[C@H](Cc3c[nH]c4ccccc34)NC(=O)[C@H](CCN)NC(=O)[C@@H](CCN)NC2=O)[C@@H](C)O)CCNC(=O)[C@H]([C@@H](C)O)NC(=O)[C@H](CCN)NC(=O)[C@H](CCN)NC1=O` [Ex. 96] (I: cyclo(W[Dab]VTY[dP]PLSY[Dab]E[dDab][Dab]) / II: [Dab]T[Dab][Dab][Dab][dL]L[Dab][Dab]T; amide I:12-II:N; lactam II:4-II:C): the “Pseudomonas aeruginosa ATCC 27853 MIC” value in series [1] (ATCC 27853) came out at 0.5 µg/mL. In addition, the “Klebsiella pneumoniae SSI #3010 MIC” value in series [2] (SSI #3010) is 0.25 µg/mL. The “Acinetobacter baumannii 872842 MIC” value in series [3] (872842) came out at 1 µg/mL. Also, in series [4] (968733), the “Klebsiella pneumoniae 968733 MIC” value turned out to be 1 µg/mL. In addition, the “Escherichia coli 926415 MIC” value in series [5] (926415) was determined as 0.25 µg/mL. Moreover, the “Escherichia coli ATCC 25922 MIC” value in series [6] (ATCC 25922) worked out at 0.125 µg/mL. For the same compound, the “Acinetobacter baumannii DSM 30008 MIC” value in series [7] (DSM 30008) came out at 0.25 µg/mL. The “Hemolysis at 100 μg/mL” value in series [8] (red cells of human, 1 h, 100) is recorded as 4%.
For `CC(C)C[C@@H]1NC(=O)[C@@H](CC(C)C)NC(=O)[C@H](CCN)NC(=O)[C@@H](NC(=O)[C@H](CCN)NC(=O)[C@@H](NC(=O)[C@H](CCN)NC(=O)CC[C@@H]2NC(=O)[C@@H]3CSSC[C@H](NC(=O)[C@H](Cc4c[nH]c5ccccc45)NC(=O)[C@H](CCN)NC(=O)[C@@H](CCN)NC2=O)C(=O)N[C@@H](C(C)(C)C)C(=O)N[C@@H]([C@@H](C)O)C(=O)N[C@@H](CO)C(=O)N2CCC[C@@H]2C(=O)N2CCC[C@H]2C(=O)N[C@@H](CC(C)C)C(=O)N[C@@H](CO)C(=O)N[C@@H](Cc2ccc(O)cc2)C(=O)N3)[C@@H](C)O)CCNC(=O)[C@H]([C@@H](C)O)NC(=O)[C@H](CCN)NC(=O)[C@H](CCN)NC1=O` [Ex. 98] (I: cyclo(LSYCE[dDab][Dab]WC[Tle]TS[dP]P) / II: [Dab]T[Dab][Dab][Dab][dL]L[Dab][Dab]T; disulfide I:4-I:9; amide I:5-II:N; lactam II:4-II:C), the “Pseudomonas aeruginosa ATCC 27853 MIC” value in series [1] (Mueller-Hinton II broth) worked out at 0.25 µg/mL. The “Klebsiella pneumoniae SSI #3010 MIC” value in series [2] (Mueller-Hinton II broth) is 0.125 µg/mL. Besides, the “Acinetobacter baumannii 872842 MIC” value in series [3] (setting [9]) came to 0.25 µg/mL. Besides, the “Klebsiella pneumoniae 968733 MIC” value in series [4] (setting [9]) came to 0.5 µg/mL. Also, the “Escherichia coli 926415 MIC” value in series [5] (setting [9]) turned out to be 0.5 µg/mL. In addition, the “Escherichia coli ATCC 25922 MIC” value in series [6] (Mueller-Hinton II broth) stood at 0.125 µg/mL. Also, the “Acinetobacter baumannii DSM 30008 MIC” value in series [7] (Mueller-Hinton II broth) came to 0.0625 µg/mL. In addition, the “Hemolysis at 100 μg/mL” value in series [8] (100 μg/mL, 20% hRBC, 1 h at 37° C.) is 2%.
Regarding `CC(C)C[C@@H]1NC(=O)[C@H](CCN)NC(=O)[C@@H](CCN)NC(=O)[C@H](CCC(=O)N[C@@H](CCN)C(=O)N[C@H](C(=O)N[C@@H](CCN)C(=O)N[C@H]2CCNC(=O)[C@H]([C@@H](C)O)NC(=O)[C@H](CCN)NC(=O)[C@H](CCN)NC(=O)[C@H](CC(C)C)NC(=O)[C@@H](CC(C)C)NC(=O)[C@H](CCN)NC2=O)[C@@H](C)O)NC(=O)[C@H](CCN)NC(=O)[C@H](Cc2ccc(O)cc2)NC(=O)[C@H](CO)NC(=O)[C@H](CC(C)C)NC(=O)[C@@H]2CCCN2C(=O)[C@H]2CCCN2C(=O)[C@H](Cc2ccc(O)cc2)NC(=O)[C@H]([C@@H](C)O)NC(=O)[C@H](C(C)C)NC(=O)[C@H](CCN)NC1=O` [Ex. 99] (I: cyclo(LSY[Dab]E[dDab][Dab]L[Dab]VTY[dP]P) / II: [Dab]T[Dab][Dab][Dab][dL]L[Dab][Dab]T; amide I:5-II:N; lactam II:4-II:C), the “Pseudomonas aeruginosa ATCC 27853 MIC” value in series [1] (ATCC 27853) was found to be 0.5 µg/mL. Further, the “Klebsiella pneumoniae SSI #3010 MIC” value in series [2] (SSI #3010) was determined as 0.25 µg/mL. In series [3] (872842), the “Acinetobacter baumannii 872842 MIC” value stood at 0.25 µg/mL. For the same compound, the “Klebsiella pneumoniae 968733 MIC” value in series [4] (968733) turned out to be 0.5 µg/mL. In series [5] (926415), the “Escherichia coli 926415 MIC” value worked out at 0.25 µg/mL. For the same compound, in series [6] (ATCC 25922), the “Escherichia coli ATCC 25922 MIC” value is 0.125 µg/mL. In addition, the “Acinetobacter baumannii DSM 30008 MIC” value in series [7] (DSM 30008) came to 0.25 µg/mL. Further, the “Hemolysis at 100 μg/mL” value in series [8] (red cells of human, 1 h, 100) came out at 4%.
Take `CC(C)C[C@@H]1NC(=O)[C@@H](CC(C)C)NC(=O)[C@H](CCN)NC(=O)[C@@H](NC(=O)[C@H](CCN)NC(=O)[C@@H](NC(=O)[C@H](CCN)NC(=O)CC[C@@H]2NC(=O)[C@H]([C@@H](C)O)NC(=O)[C@H](Cc3ccc(O)cc3)NC(=O)[C@H]([C@@H](C)O)NC(=O)[C@H](C(C)C)NC(=O)[C@@H]3CCCN3C(=O)[C@H]3CCN3C(=O)[C@H]([C@@H](C)O)NC(=O)[C@H](C)NC(=O)[C@H](C(C)(C)C)NC(=O)[C@H]([C@@H](C)O)NC(=O)[C@H](Cc3c[nH]c4ccccc34)NC(=O)[C@H]([C@@H](C)O)NC(=O)[C@@H]([C@H](C)O)NC2=O)[C@@H](C)O)CCNC(=O)[C@H]([C@@H](C)O)NC(=O)[C@H](CCN)NC(=O)[C@H](CCN)NC1=O` [Ex. 100] (I: cyclo(AT[dAze]PVTYTE[dT]TWT[Tle]) / II: [Dab]T[Dab][Dab][Dab][dL]L[Dab][Dab]T; amide I:9-II:N; lactam II:4-II:C): the “Pseudomonas aeruginosa ATCC 27853 MIC” value in series [1] (ATCC 27853) was determined as 0.125 µg/mL. For the same compound, the “Klebsiella pneumoniae SSI #3010 MIC” value in series [2] (SSI #3010) was determined as 0.125 µg/mL. Also, the “Acinetobacter baumannii 872842 MIC” value in series [3] (872842) stood at 0.25 µg/mL. Further, the “Klebsiella pneumoniae 968733 MIC” value in series [4] (968733) is 2 µg/mL. Besides, the “Escherichia coli 926415 MIC” value in series [5] (926415) was 0.5 µg/mL. Further, the “Escherichia coli ATCC 25922 MIC” value in series [6] (ATCC 25922) was determined as 0.0625 µg/mL. The “Acinetobacter baumannii DSM 30008 MIC” value in series [7] (DSM 30008) was 0.0625 µg/mL. In addition, the “Hemolysis at 100 μg/mL” value in series [8] (red cells of human, 1 h, 100) was 2%.
